According to patent US20220373538A1, “COMPOSITION FOR DETERMINATION OF CELL-MEDIATED IMMUNE RESPONSIVENESS” (Lophius Biosciences GmbH, priority 2015, published 2022):
Where two headings read alike, the source gives them in different places.

Assays:
Format in all cases: cell-based, human
PBMC [1] = assay: IFN-γ ELISpot assay, one-step detection; conditions: for IFN-γ secreting cells after stimulation with the single stimulant (in words) / number of IFN-γ secreting cells detected: single stimulant alone; for IFN-γ secreting cells after stimulation with the single stimulant (in words): collective of 10 donors, LPS 1 EU/ml; for number of IFN-γ secreting cells detected: donor d270
PBMC [2] = assay: IFN-γ ELISpot assay, two-step detection; conditions: for IL-12 concentration at which the number of IFN-γ secreting cells reached a maximum or plateau, IL-12 combined with the poly(I:C) variant: 10 μg/ml poly(I:C)-LMW, 1 μg/ml poly(I:C)-LMW/LyoVec, 1 μg/ml poly(I:C) (Enzo)
PBMC [3] = assay: IFN-γ ELISA, temporal course of IFN-γ release; conditions: for start of IFN-γ secretion after stimulation: working concentrations, 0 to 24 hours
Method: The detection of secreted IFN-γ was performed with the test kit “BD OptEIA Human IFN-γ ELISA Set” from Becton, Dickinson and Company according to the recommended assay performance in the technical data sheet.
To ensure that the activation of the IFN-γ production by the tested stimulants occurred in the typical stimulation period of 19 hours, the temporal course of the IFN-γ secretion induced by the stimulants was determined over a period of 24 hours. For this purpose, at each time point PBMC adjusted to 2×10^5 lymphocytes of different donors have been stimulated by the determined working concentrations of the stimulants poly(I:C) in combination with IL-12. KRN7000 and CEFTv for 0 to 24 hours.
In specifically stimulated cells the determination of the IFN-γ production was made to 11 time points in an interval of 2 or 4 hours. In unstimulated cells (negative control) three measurements in interval of 6 and 12 hours were made. Upon completion of each stimulation period the cells of the stimulation preparation were centrifuged and the supernatant stored at −20° C. After all stimulations were finished the IFN-γ concentration of the supernatants has been determined by IFN-γ ELISA as described in example 3.

PBMC [4] = assay: IFN-γ ELISpot assay (T-Track basic IFN-γ), PBMC of rheumatism patients; conditions: patient P1, giant cell arthritis, 35 mg prednisolone equivalent daily; days 6 and 9
[5] = donor d022, a-Gal-Cer variants titrated, 19 h

With `CCCCCCCCCCCCCCCCCCCCCCCCCC(=O)N[C@@H](CO[C@H]1O[C@H](CO)[C@H](O)[C@H](O)[C@H]1O)[C@H](O)[C@H](O)CCCCCCCCCCCCCC` [KRN7000 (from Funakoshi)] the “concentration at which the number of IFN-γ secreting cells reached a maximum, plateau or saturation region” value (from here on “concentration … plateau or saturation region”) (PBMC [1]; [5]) was 1 µg/mL, the “more IFN-γ secreting cells activated compared with KRN7000 (from Enzo)” value (PBMC [1]; donor d248, saturation region) was 100% and the “IFN-γ secreting cells after stimulation (in words)” value (PBMC [2]; donor d242, a-Gal-Cer variants) was “highest number of IFN-γ secreting cells”. The “time at which IFN-γ secretion reached a plateau or maximum” value (PBMC [3]; donor d022) was 12 h, the “start of IFN-γ secretion after stimulation” value (PBMC [3]; donor d022) was 8 h and the “time at which IFN-γ secretion reached a plateau or maximum” value (PBMC [3]; donor d248) was 18 h. The “start of IFN-γ secretion after stimulation” value (PBMC [3]; donor d248) was 2 h and the “IFN-γ release in PBMC, comparison of stimulants (in words)” value (PBMC [3]; summary of donors) was “weakest IFN-γ activating properties”.
With “polyinosinic:polycytidylic acid [poly(I:C) (from Enzo)]” the “change of the number of IFN-γ secreting cells by IL-12 in combination with the poly(I:C) variant (in words)” value (PBMC [1]) was “very low increase”, the “concentration … plateau or saturation region” value (PBMC [1]) was “around 0.3 μg/ml” and the “IFN-γ secreting cells after stimulation (in words)” value (PBMC [1]; donor d042, […]) was “activation of IFN-γ secreting PBMC”. The “number of IFN-γ secreting cells exceeding the plateau of poly(I:C)-LMW” value (PBMC [1]; donor d098, at highest concentration tested of 10 μg/ml) was “more than 100%”, the “ranking of activation of IFN-γ secreting cells in culture of human PBMC” value (PBMC [1]; summary of one-step and two-step detection) was “highest activation of IFN-γ secreting cells” and the “IL-12 concentration at which the number of IFN-γ secreting cells reached a maximum or plateau, IL-12 combined with the poly(I:C) variant” value (“IL-12 concentration at which the number” for short) (PBMC [2]; donor d022) was 0.01 µg/mL. The “IL-12 concentration at which the number” value (PBMC [2]; donor d098) was 0.001 µg/mL, the “IFN-γ secreting cells after stimulation (in words)” value (PBMC [2]; donor d098, poly(I:C) variants) was “without reaching a plateau” and the “IL-12 concentration at which the number” value (PBMC [2]; donor d248) was 0.01 µg/mL.
`CCCCCCCCCCCCCCCCCCCCCCCCCC(=O)N[C@@H](CO[C@H]1O[C@H](CO)[C@H](O)[C@H](O)[C@H]1O)[C@H](O)[C@H](O)CCCCCCCCCCCCCC` [KRN7000 (from Enzo)] was tested, and the “concentration … plateau or saturation region” value (PBMC [1]; [5]) was 3 µg/mL and the “IFN-γ secreting cells after stimulation (in words)” value (PBMC [2]; donor d022, a-Gal-Cer variants) was “highest number”.
For `NC(N)=O` [urea], the “IFN-γ secreting cells after stimulation with the single stimulant (in words)” value (PBMC [1]) was “did not result in a IFN-γ secretion”, the “influence of urea on IFN-γ secreting cells induced by 1 μg p.p./ml CEFTv (in words)” value (from here on “influence … by 1 μg p.p./ml CEFTv (in words)”) (PBMC [2]; donor d034) was “only improved by a 24 hours pre-incubation of CEFTv or directly added urea” and the “influence … by 1 μg p.p./ml CEFTv (in words)” value (PBMC [2]; donor d204, CEFTv pre-incubated for 48 hours in urea buffer) was “deterioration of the stimulation at 100 mM and an improvement at 150 mM”. The “urea concentration up to which the IFN-γ secreting cells increased” value (PBMC [2]; donor d204, CEFTv pre-incubated in urea buffer for 24 hours) was 12.5 mM and the “influence … by 1 μg p.p./ml CEFTv (in words)” value (PBMC [2]; donor d204, without pre-incubation) was “no improvement”.
In the case of lipopolysaccharide [LPS], the “effect of combination of LPS with CEFTv (in words)” value (PBMC [1]) is reported as “synergistic induction of IFN-γ secreting NK cells”, the “stimulation ability of CEFTv on simultaneous administration of LPS (in words)” value (PBMC [1]; all three tested donors d204, d237, d254) is reported as “did not result in an improvement” and the “IFN-γ secreting cells after stimulation (in words)” value (PBMC [1]; donor d204 (CMV-/EBV-seropositive), CEFTv / LPS matrix) is reported as “high numbers of IFN-γ secreting cells”. The “LPS concentration at which stimulated PBMC reached a maximum” value (PBMC [1]; donor d219, LPS in combination with CEFTv) was 1 EU/ml, the “IFN-γ secreting cells after stimulation (in words)” value (PBMC [1]; donor d237 (CMV-seronegative/EBV-seropositive), CEFTv / LPS matrix) was “high numbers of IFN-γ secreting cells” and the “LPS concentration as from which IFN-γ secreting cells increased” value (PBMC [1]; donor d237, LPS in combination with CEFTv) was 3.2 EU/ml. For the same compound, the “LPS concentration as from which LPS alone induced a low secretion of IFN-γ” value (PBMC [1]; donor d241) was 10 EU/ml, the “LPS concentration as from which IFN-γ secreting cells increased” value (PBMC [1]; donor d241, LPS in combination with CEFTv) was 3.2 EU/ml and the “LPS concentration as from which LPS alone induced a low secretion of IFN-γ” value (PBMC [1]; donor d254) was 100 EU/ml. The “IFN-γ secreting cells after stimulation (in words)” value (PBMC [1]; donor d254 (CMV-/EBV-seropositive), CEFTv / LPS matrix) was “low numbers of IFN-γ secreting cells”, the “threshold for LPS at which even no IFN-γ secreting cells have been detected” value (PBMC [1]; donors d204, d237, d254) was 1 EU/ml and the “IFN-γ secreting cells after stimulation with the single stimulant (in words)” value (PBMC [1]) was “barely detected”. The “number of IFN-γ secreting cells detected” value (PBMC [1]) was “high number of IFN-γ secreting cells”, the “own stimulating effect of LPS (in words)” value (PBMC [2]; LPS 1 EU/ml) was “no own detectable stimulating effect” and the “stimulation ability of CEFTv on addition of LPS (in words)” value (PBMC [2]; summary of four donors) was “could not have been improved”.
In the case of `C[C@]12C=CC(=O)C=C1CC[C@@H]1[C@@H]2[C@@H](O)C[C@@]2(C)[C@H]1CC[C@]2(O)C(=O)CO` [prednisolone], the “course of cocktail-reactive IFN-γ producing cells under treatment (in words)” value (PBMC [4]) is reported as “continuous drop in the numbers of cocktail-reactive IFN-g-producing cells”.
In the case of “polyinosinic:polycytidylic acid [poly(I:C)]”, the “number of IFN-γ secreting cells detected” value (PBMC [1]) is reported as “over 270 IFN-γ secreting cells”.
